Laboratory results from patent publication US20050256037A1, “Antibacterial amide macrocyles” (Bayer HealthCare AG, priority 2003, published 2005).
Values after ≈ are worked out from the molar mass of the structure shown. Where a name gives a salt, the structure may show the parent alone. Read-outs that look alike come from different tables or passages of the source.

Columns and labels:
[1] = tested on: E. faecium L4001; assay: MIC, liquid dilution test in minimal medium (96-well microtitre plate); type: cell-based; details: Enterococcus faecium
Description: (§1) Determination of the Minimum Inhibitory Concentration (MIC)
(§2) The minimum inhibitory concentration (MIC) is the minimum concentration of an antibiotic with which the growth of a test microbe is inhibited over 18-24 h. The inhibitor concentration can in these cases be determined by standard microbiological methods (see, for example, The National Committee for Clinical Laboratory Standards. Methods for dilution antimicrobial susceptibility tests for bacteria that grow aerobically; approved standard-fifth edition. NCCLS document M7-A5 [ISBN 1-56238-394-9]. NCCLS, 940 West Valley Road, Suite 1400, Wayne, Pa. 19087-1898 USA, 2000). The MIC of the compounds of the invention is determined in the liquid dilution test on the 96-well microtitre plate scale. The bacterial microbes are cultivated in a minimal medium (18.5 mM Na2HPO4, 5.7 mM KH2PO4, 9.3 mM NH4Cl, 2.8 mM MgSO4, 17.1 mM NaCl, 0.033 μg/ml thiamine hydrochloride, 1.2 μg/ml nicotinic acid, 0.003 μg/ml biotin, 1% glucose, 25 μg/ml of each proteinogenic amino acid with the exception of phenylalanine; [H.-P. Kroll; unpublished]) with addition of 0.4% BH broth (test medium). In the case of Enterococcus faecium L4001, heat-inactivated fetal calf serum (FCS; GibcoBRL, Germany) is added to the test medium in a final concentration of 10%. Overnight cultures of the test microbes are diluted to an OD578 of 0.001 (to 0.01 in the case of enterococci) in fresh test medium, and incubated 1:1 with dilutions of the test substances (1:2 dilution steps) in test medium (200 μl final volume). The cultures are incubated at 37° C. for 18-24 hours; enterococci in the presence of 5% CO2.
(§3) The lowest substance concentration in each case at which bacterial growth was no longer visible is defined as the MIC. […] The compounds show a graded antibacterial effect against most of the test microbes.

[2] = tested on: S. aureus E33; assay: as above; type: cell-based; details: Staphylococcus aureus
Description: as §1, §2, §3

[3] = target: S. aureus 133 Translation; assay: S. aureus in vitro transcription-translation assay (S30 extract, firefly luciferase reporter); type: biochemical
Excerpt: In vitro Transcription-Translation with S. aureus Extracts
Construction of an S. aureus Luciferase Reporter Plasmid
A reporter plasmid which can be used in an in vitro transcription-translation assay from S. aureus is constructed by using the plasmid pBESTluc (Promega Corporation, USA). The E. coli tac promoter present in this plasmid in front of the firefly luciferase is replaced by the capA1 promoter with appropriate Shine-Dalgarno sequence from S. aureus. The primers CAPFor 5′-CGGCCAAGCTTACTCGGAT-[…] […]-3′ and CAPRev 5′-[…]-3′ are used for this. The primer CAPFor contains the capA1 promoter, the ribosome binding site and the 5′ region of the luciferase gene. After PCR using pBESTluc as template it is possible to isolate a PCR product which contains the firefly luciferase gene with the fused capA1 promoter. This is, after restriction with ClaI and HindIII, ligated into the vector pBESTluc which has likewise been digested with ClaI and HindIII. The resulting plasmid pla is able to replicate in E. coli and be used as template in the S. aureus in vitro transcription-traslation assay.
Preparation of S30 Extracts from S. aureus
Six litres of BHI medium are inoculated with a 250 ml overnight culture of an S. aureus strain and allowed to grow at 37° C. until the OD600 run is 2-4. The cells are harvested by centrifugation and washed in 500 ml of cold buffer A (10 mM Tris acetate, pH 8.0, 14 mM Magnesium acetate, 1 mM DTT, 1 M KCl). After renewed centrifugation, the cells are washed in 250 ml of cold buffer A with 50 mM KCl, and the resulting pellets are frozen at −20° C. for 60 min. The pellets are thawed on ice in 30 to 60 min and taken up to a total volume of 99 ml in buffer B (10 mM Tris acetate, pH 8.0, 20 mM Magnesium acetate, 1 mM DTT, 50.mM KCl). 1.5 ml portions of lysostaphin (0.8 mg/ml) in buffer B are introduced into 3 precooled centrifuge cups and each mixed with 33 ml of the cell suspension. The samples are incubated at 37° C., shaking occasionally, for 45 to 60 min, before 150 μl of a 0.5 M DTT solution are added. The lysed cells are centrifuged at 30 000×g and 4° C. for 30 min. The cell pellet is taken up in buffer B and then centrifuged again under the same conditions, and the collected supernatants are combined. The supernatants are centrifuged again under the same conditions, and 0.25 volume of buffer C (670 mM Tris acetate, pH 8.0, 20 mM Magnesium acetate, 7 mM Na3 phosphoenolpyruvate, 7 mM DTT, 5.5 mM ATP, 70 μM amino acids (complete from Promega), 75 μg of pyruvate kinase (Sigma, Germany)/ml are added to the upper ⅔ of the supernatant. The samples are incubated at 37° C. for 30 min. The supernatants are dialysed against 2 l of dialysis buffer (10 mM Tris acetate, pH 8.0, 14 mM Magnesium acetate, 1 mM DTT, 60 mM Potassium acetate) in a dialysis tube with a 3500 Da cut-off with one buffer change at 4° C. overnight. The dialysate is concentrated to a protein concentration of about 10 mg/ml by covering the dialysis tube with cold PEG 8000 powder (Sigma, Germany) at 4° C. The S30 extracts can be stored in aliquots at −70° C.
Determination of the IC50 in the S. aureus in vitro Transcription-Translation Assay Inhibition of protein biosynthesis of the compounds can be shown in an in vitro transcription-translation assay. The assay is based on the cell-free transcription and translation of firefly luciferase using the reporter plasmid pla as template and cell-free S30 extracts obtained from S. aureus. The activity of the resulting luciferase can be detected by luminescence measurement.
The amount of S30 extract or plasmid pla to be employed must be tested anew for each preparation in order to ensure an optimal concentration in the assay. 3 μl of the substance to be tested, dissolved in 5% DMSO, are introduced into an MTP. Then 10 μl of a suitably concentrated plasmid solution pla are added. […]

[4] = tested on: E. faecalis ICB 27159; assay: Rate of spontaneous resistance; type: cell-based; details: * = colonies with increased MIC (4-8-fold) were isolated
[5] = L4001, read-out: MIC E. faecium L4001
[6] = E33, read-out: MIC S. aureus E33

Structure (SMILES) | MIC [1, 5] [µM] | MIC [2, 6] [µM] | IC50 ([3]; Table A) [µM] | IC50 ([3]; Table B) [µM] | MIC ([1]; L4001, Table A, liquid dilution, 10% FCS, 5% CO2, read-out: MIC E. faecium L4001) [µM] | MIC ([2]; E33, Table A, liquid dilution, 18-24 h, 37° C., read-out: MIC S. aureus E33) [µM] | Rate of spontaneous resistance E. faecalis ICB 27159 ([4]; 10 × MIC) | Rate of spontaneous resistance E. faecalis ICB 27159 ([4]; 5 × MIC)
CN1C(=O)[C@H](C[C@@H](O)CN)NC(=O)[C@@H](N)Cc2cc(ccc2O)-c2ccc(O)c(c2)C[C@H]1C(=O)NCCN [Example 1, (8S,11S,14S)-14-amino-N-(2-aminoethyl)-11-[(2R)-3-amino-2-hydroxypropyl]-5,17-dihydroxy-9-methyl-10,13-dioxo-9,12-diazatricyclo[14.3.1.1.^2,6]henicosa-1(20),2(21),3,5,16,18-hexaene-8-carboxamide, trihydrochloride] | 12.5 | 3.1 | 0.1 | 0.1 |  |  |  | 
NC[C@H](O)C[C@@H]1NC(=O)[C@@H](N)Cc2cc(ccc2O)-c2ccc(O)c(c2)C[C@@H](C(=O)O)NC1=O [Example 20A, 14(S)-Amino-1(S)-(3-amino-2(R)-hydroxypropyl)-5,17-dihydroxy-10,13-dioxo-9,12-diazatricyclo[14.3.1.1^2,6]henicosa-1(19),2,4,6(21),16(20),17-hexaene-8(S)-carboxylic acid dihydrochloride, reference compound] |  |  | 1.5 | 1.5 | > 25 | 0.1 | 4.1 × 10^−6 | 
NCCC[C@@H]1NC(=O)[C@@H](N)Cc2cc(ccc2O)-c2ccc(O)c(c2)C[C@@H](C(=O)NCCN)NC1=O [Example 6, (8S,11S,14S)-14-amino-N-(2-aminoethyl)-11-(3-aminopropyl)-5,17-dihydroxy-10,1 3-dioxo-9,12-diazatricyclo[14.3.1.1^2,6]henicosa-1(20),2(21),3,5,16,18-hexaene-8-carboxamide] | > 50 | 3.1 (≈ 1.55 µg/mL) | 0.5 | 0.5 |  |  | <4 × 10^−10* | <4 × 10^−9*
